Results published in patent US20220088155A1, “SUBCONJUNCTIVAL CHEMOTHERAPEUTIC DELIVERY BY FIBRIN SEALANT IN THE TREATMENT OF RETINOBLASTOMA” (BAXTER INTERNATIONALINC., priority 2019, published 2022).
pIC50: −log10 of the molar value. Read-outs that look alike come from different tables or passages of the source.

Columns and labels:
Y79 retinoblastoma cells = assay: Cell viability assay (resazurin/Alamar Blue), Y79; type: cell-based, human; details: single drug, read-out: Standalone IC50
Method: (§1) The human retinoblastoma Y79 (ATCC® HTB18™) and WERI (ATCC® HTB169™) cell lines were cultured in RPMI 1640 (ATCC®) medium supplemented with 20% (Y79) or 10% (WERI-RB) fetal bovine serum, 100 U/mL penicillin, and […] streptomycin in a humidified atmosphere of 5% CO2 at 37° C., grown in 75 cm^2 tissue culture flasks. Once confluent, cells were sub cultivated with fresh medium 1:2 to 1:4 ratios after discarding the supernatant and obtaining the gravity-settled aggregates.
(§2) 10 mL of cell suspension were centrifuged at 1000 G for 10 minutes. The supernatant was discarded and the pellet was then resuspended in media to 1.1*10^5 live cells/mL following a viability cell count check. Cells were plated in 96-well plates at 10,000 cells per well. Sample wells were treated with carboplatin, etoposide or vincristine at the concentrations of 1000 uM, 100 uM, 50 uM, 10 uM, 5 uM, 1 uM, 0.5 uM, and 0.1 uM. Untreated and non-cell controls include a 10 uL vehicle, bringing up all wells to 100 uL total volume. Experiments covered 24/48/72 hour incubations at 5% CO2 at 37° C. prior to analyses. Plates ready for analysis were incubated with 10 uL of 10× Alamar Blue Reagent for 1-4 hours (apparent color change) and emission intensity read at 585 nm following a 555 nm excitation.
(§3) Y79 and WERI cells were incubated with Vincristine, Etoposide, or Carboplatin using previously established half-maximal inhibitory concentrations in a fixed-ratio treatment paradigm. Y79 and WERI cells also were incubated with a mixture of Vincristine, Etoposide, or Carboplatin.

[1] = test system: WERI retinoblastoma cells; assay: Cell viability assay (resazurin/Alamar Blue), WERI; type: cell-based, human; details: single drug, read-out: Standalone IC50
Method: as §1, §2, §3

TISSEEL fibrin sealant = molecular target: T1, TISSEEL fibrin sealant (Homo sapiens, UniProt P02671+P02675+P02679); assay: Scanning electron microscopy branching analysis of drug-embedded fibrin sealant; details: fibrin sealant admixed with 1 mM drug, SEM 5,000x, ImageJ skeleton analysis
T1 construct: purchased
T1 sequence (P02671 20-644 isoform P02671-2 limits assumed): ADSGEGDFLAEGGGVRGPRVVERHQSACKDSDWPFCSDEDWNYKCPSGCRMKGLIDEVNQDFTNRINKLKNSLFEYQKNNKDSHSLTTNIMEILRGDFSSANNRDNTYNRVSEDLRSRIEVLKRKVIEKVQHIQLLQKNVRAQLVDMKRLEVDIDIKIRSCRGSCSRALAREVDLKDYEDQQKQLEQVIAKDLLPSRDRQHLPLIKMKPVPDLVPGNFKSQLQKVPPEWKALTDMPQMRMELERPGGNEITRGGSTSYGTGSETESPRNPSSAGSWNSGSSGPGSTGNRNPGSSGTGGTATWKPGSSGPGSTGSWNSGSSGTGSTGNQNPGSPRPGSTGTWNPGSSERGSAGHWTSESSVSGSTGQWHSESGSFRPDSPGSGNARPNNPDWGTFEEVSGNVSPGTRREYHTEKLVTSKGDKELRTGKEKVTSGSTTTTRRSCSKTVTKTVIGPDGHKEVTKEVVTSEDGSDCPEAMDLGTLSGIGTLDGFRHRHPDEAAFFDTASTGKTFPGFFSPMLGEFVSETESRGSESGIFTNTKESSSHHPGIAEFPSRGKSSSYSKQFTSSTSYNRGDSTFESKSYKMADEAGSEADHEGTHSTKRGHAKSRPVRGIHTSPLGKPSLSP
T1 sequence (P02675 45-491 limits assumed): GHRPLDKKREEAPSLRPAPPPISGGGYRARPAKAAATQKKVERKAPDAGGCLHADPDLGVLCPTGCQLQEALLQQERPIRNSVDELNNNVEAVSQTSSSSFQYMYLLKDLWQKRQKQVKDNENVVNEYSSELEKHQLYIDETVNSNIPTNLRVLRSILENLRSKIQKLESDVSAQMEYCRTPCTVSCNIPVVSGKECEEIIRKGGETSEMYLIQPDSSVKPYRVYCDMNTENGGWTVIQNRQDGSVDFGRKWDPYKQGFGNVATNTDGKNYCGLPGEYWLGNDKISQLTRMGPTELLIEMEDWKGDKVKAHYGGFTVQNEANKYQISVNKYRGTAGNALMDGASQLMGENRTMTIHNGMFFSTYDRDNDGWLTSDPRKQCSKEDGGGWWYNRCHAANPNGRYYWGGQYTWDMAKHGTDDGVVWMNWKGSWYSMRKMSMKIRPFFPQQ
T1 sequence (P02679 27-437 isoform P02679-2 limits assumed): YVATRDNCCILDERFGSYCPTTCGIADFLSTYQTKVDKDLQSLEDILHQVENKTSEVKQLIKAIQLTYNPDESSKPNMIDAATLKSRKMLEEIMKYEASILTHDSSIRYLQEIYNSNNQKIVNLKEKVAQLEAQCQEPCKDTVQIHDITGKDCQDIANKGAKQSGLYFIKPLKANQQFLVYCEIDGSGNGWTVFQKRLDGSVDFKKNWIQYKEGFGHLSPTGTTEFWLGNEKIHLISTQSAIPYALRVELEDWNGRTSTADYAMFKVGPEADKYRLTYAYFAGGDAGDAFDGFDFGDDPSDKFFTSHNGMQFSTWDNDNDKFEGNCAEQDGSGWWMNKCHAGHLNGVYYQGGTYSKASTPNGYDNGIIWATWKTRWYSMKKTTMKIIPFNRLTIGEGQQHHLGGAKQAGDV
Method: FIGS. 8A to 8D depict fiber analysis of VEC-embedded fibrin sealant. Commercially available fibrin sealant was admixed with 1 mM additions of Vincristine, Etoposide, or Carboplatin. Samples were critically point dried and imaged by scanning electron microscopy at 5,000× magnification at various points around the samples. Images were uploaded into ImageJ for fiber analysis. […] In FIG. 8B, the images were binarized to 8-bit grayscale. In FIG. 8C, the binarized image was skeletonized to produce a representation of the fiber network. The Analyze Skeleton function was used to quantify fiber branches and junctions. […] Images analysed were taken at 5,000× magnificent and compared over a 800×800 pixel area. TISSEEL™ or TISSEEL™ admixed with chemotherapeutic drug (1 mM final concentration) was prepared according to the IFU. In short, 2 mM additions of chemotherapy were transferred via syringe and needle to the thrombin vial (500 IU/mL thrombin) during preparation and placed in a Fibrinotherm to spin and heat the mixtures to 37 degrees celsius. Following complete dissolution of both thrombin and fibrinogen solutions, each solution was pulled up into respective syringes and loaded in the Duploject spray system accompanying the kit. The 1 mL volumes of thrombin and fibrinogen (2 mL total) were sprayed onto collagen casing. Immediately following coagulation (˜30 seconds), the samples were washed 3× in cacodylate buffer for 10 minutes and fixed in 2% glutaraldehyde buffer (Electron Microscopy Sciences). Fixed clots were washed, serially dehydrated with ethanol, and dried with hexamethyldisilizane (Electron Microscopy Sciences). Clots were allowed to air dry overnight thereafter. Clots were then teased apart with forceps and mounted on aluminum sample supports with carbon adhesive tape. Samples were sputter coated with 20 nm iridium metal in a Leica ACE600 and analyzed by scanning electron microscopy (FEI Quanta 650 FEG). Branching analysis was performed using 2D images cross-sectional cuts of fibrin clots. Representative images and sections displaying easily discernible fibrin branching characteristics were selected from each group. Images were processed using ImageJ's skeleton analysis function. In short, images were first binarized to delineate the image further into branch and background sections. Binary images were then placed through the Analyze Skeleton (2D/3D) function with no pruning or selected parameters. The output file included details such as branch lengths, branch numbers, and number of junctions.

Compound	pIC50 (Y79 retinoblastoma cells)	pIC50 [1]	Avg Branch length (TISSEEL fibrin sealant)	Branch/Junction Ratio (TISSEEL fibrin sealant)	Junctions (TISSEEL fibrin sealant)	Max Branch Number (TISSEEL fibrin sealant)	pIC50 (Y79 retinoblastoma cells; Homo sapiens)	pIC50 ([1]; Homo sapiens)
N.N.O=C([O-])C1(C(=O)[O-])CCC1.[Pt+2] [Carboplatin]	5.96	6.00	19 nm	68.0	148 +/− 2.6	10065 +/− 142	–	–
COc1cc([C@@H]2c3cc4c(cc3[C@@H](O[C@@H]3O[C@@H]5CO[C@@H](C)O[C@H]5[C@H](O)[C@H]3O)[C@H]3COC(=O)[C@H]23)OCO4)cc(OC)c1O [Etoposide]	–	–	21 nm	66.2	125 +/− 2.1	8272 +/− 140	5.22	5.57
CC[C@]1(O)C[C@H]2CN(CCc3c([nH]c4ccccc34)[C@@](C(=O)OC)(c3cc4c(cc3OC)N(C=O)[C@H]3[C@@](O)(C(=O)OC)[C@H](OC(C)=O)[C@]5(CC)C=CCN6CC[C@]43[C@@H]65)C2)C1 [Vincristine]	–	–	22 nm	55.7	136 +/− 2.3	7580 +/− 125	7.00	5.54
